{
  "source": "paper PMC5666006",
  "about": "“Combating virulence of Gram-negative bacilli by OmpA inhibition” (Scientific Reports, 2017)",
  "key": {"A. baumannii ATCC 17978 [1]": {"system": "A. baumannii ATCC 17978", "assay_type": "cell-based", "experimental": "(§1) In the initial screening, the bactericidal activity of the synthetic peptides and their toxicity on human lung epithelial cells (A549) were evaluated.\n(§2) Table S1. MICs of the six hexapeptides for A. baumannii and E. coli.\n(§3) Peptides P. aeruginosa PaO1\n(§4) MIC: minimal inhibitory concentration"}, "E. coli ATCC 25922 [2]": {"system": "E. coli ATCC 25922", "assay_type": "cell-based", "experimental": "as §1, §2, §3, §4"}, "P. aeruginosa PaO1 [3]": {"system": "P. aeruginosa PaO1", "assay_type": "cell-based", "experimental": "as §1, §2, §3, §4"}, "[4]": {"assay": "Peptide toxicity, MTT assay", "assay_type": "cell-based, human", "settings": "human, A549 cells", "experimental": "Human type II pneumocyte cell line A549 derived from a human lung carcinoma were obtained from American Type Culture Collection (LGC, UK) and were grown in DMEM medium (Invitrogen, Spain) supplemented with 10% heat-inactivated fetal bovine serum, vancomycin (50 μg/mL), gentamicin (20 μg/mL), amphotericin B (0.25 μg/mL) (Invitrogen, Spain) and 1% HEPES (Invitrogen, Spain) in a humidified incubator, 5% CO2 at 37 °C. A549 cells were routinely passaged every 3–4 days. The cells were seeded 24 h in 96-well plates for cellular viability assay, and in 24 well plates for adhesion and immnunofluorescence assays.\nPeptide toxicity. […] Prior the evaluation of the peptides cytotoxicity, A549 cells were washed three times with prewarmed PBS. Then, peptides cytotoxicity was initially assessed quantitatively by monitoring the mitochondrial reduction activity using the MTT assay as described previously. The percentage of […] was calculated from the optical density (OD) as follow: [(OD of treated cells / mean OD of non-treated cell) × 100].\nTable S2. Percentages of A549 cellular viability assessed through mitochondrial reduction\nactivity (MTT assay) in presence of anti-OmpA hexapeptides and control peptides (SXV4 and\nCOL). COL: colistin. ND: not determined.\nPeptides 0.25 mg/mL 0.5 mg/mL 1 mg/mL 5 mg/mL"}, "A. baumannii ATCC 17978 [5]": {"system": "A. baumannii ATCC 17978", "assay": "Adhesion of bacteria to A549 cells", "assay_type": "cell-based", "settings": "2 h", "experimental": "Subsequently, infected A549 cells were washed five times with pre-warmed PBS and lysed with 0.5% Triton X-100. Diluted lysates were plated onto blood agar (Blood-Agar Columbia, Becton Dickinson Microbiology Systems, USA) and incubated at 37 °C for 24 h for enumeration of developed colonies and then the determination of the number of bacteria that attached to A549 cells.\nFigure S3. OmpA inhibitor hexapeptides reduce A. baumannii adherence to A549 cells. A549 cells were infected with 10^8 CFU/mL of ATCC 17978 strain during 2 h in presence of AOA-1, […]\nof bacterial adherence was calculated as follow: [(number of colonies of treated A549 cells with peptide / number of colonies of non-treated cells) x 100]. Representative results of three independent experiments are shown; data are means ± SEM. *P<0.05: between untreated and […]"}, "E. coli OmpA": {"biological_target": "T1, E. coli OmpA (Escherichia coli, UniProt P0A910)", "T1 construct": "A recombinant 37 kDa polypeptide fragment containing the transmembrane and periplasmatic domains of the E. coli OmpA protein; purchased NovoPro (China)", "T1 sequence (P0A910 22-346)": "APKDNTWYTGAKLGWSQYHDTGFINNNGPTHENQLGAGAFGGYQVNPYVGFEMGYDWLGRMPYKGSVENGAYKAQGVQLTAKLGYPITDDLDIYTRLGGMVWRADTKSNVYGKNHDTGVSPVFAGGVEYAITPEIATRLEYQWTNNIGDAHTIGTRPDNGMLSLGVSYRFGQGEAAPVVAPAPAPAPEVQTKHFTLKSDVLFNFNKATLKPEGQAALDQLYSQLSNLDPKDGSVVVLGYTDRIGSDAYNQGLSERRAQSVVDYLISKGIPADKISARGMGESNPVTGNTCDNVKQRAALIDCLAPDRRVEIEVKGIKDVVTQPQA", "assay": "NMR detection of binding (1H, STD, PFG diffusion)", "settings": "AOA-2 750 μM, OmpA 8 μM, 1 mM Triton X-100, pH 7.3, 25 °C", "experimental": "A recombinant 37 kDa polypeptide fragment containing the transmembrane and periplasmatic domains of the E. coli OmpA protein was purchased from NovoPro (China). OmpA samples contained Triton X-100 to mimic the membrane environment.\nAll NMR experiments were recorded at 25 °C on a Bruker Avance 800 MHz spectrometer equipped with a cryoprobe.\nSaturation transfer difference[38] (STD) experiments were obtained using a pseudo-2D pulse sequence for the interleaved acquisition of on-resonance and off-resonance spectra. Total saturation time was 3 seconds. Suppression of the residual water signal was achieved by excitation sculpting.\nDiffusion NMR experiments were performed using the LED pulse sequence[40] with gradient lengths of 3 ms and a diffusion delay of 110 ms. The total inter-scan delay was 4.5 s."}, "A. baumannii ATCC 17978 [6]": {"system": "A. baumannii ATCC 17978", "assay": "Bacterial cytotoxicity on A549 cells, MTT assay", "assay_type": "cell-based", "settings": "A. baumannii ATCC 17978 pretreated with 0.25 or 0.5 mg/mL, 24 h", "experimental": "(§5) Bacterial cytotoxicity. […] Prior the evaluation of bacterial cytotoxicity, we firstly removed viable bacteria from A549 cells cultures and washed A549 cells five times with pre-warmed PBS. Then, cellular viability was assessed as indicated above."}, "E. coli ATCC 25922 [7]": {"system": "E. coli ATCC 25922", "assay": "Bacterial cytotoxicity on A549 cells, MTT assay", "assay_type": "cell-based", "settings": "E. coli ATCC 25922 pretreated with 0.25 or 0.5 mg/mL, 24 h", "experimental": "as §5"}, "P. aeruginosa PaO1 [8]": {"system": "P. aeruginosa PaO1", "assay": "Bacterial cytotoxicity on A549 cells, MTT assay", "assay_type": "cell-based", "settings": "P. aeruginosa PaO1 pretreated with 0.25 or 0.5 mg/mL, 24 h", "experimental": "as §5"}, "[9]": {"system": "JPAB01: ompA-deficient ATCC 17978 strain", "assay": "Bacterial cytotoxicity on A549 cells, MTT assay", "assay_type": "cell-based, A. baumannii", "settings": "JPAB01, 0.5 mg/mL, 48 h", "experimental": "as §5\nFigure S5. Cell death induced by A. baumannii ATCC 17978 and JPAB01 strains. A549 cells were infected for 48 h with 10^8 CFU/mL of ATCC 17978 and JPAB01 strains treated with AOA-2 (0 or 0.5 mg/mL). Bacterial cytotoxicity was assessed by monitoring the mitochondrial reduction activity using the MTT assay. Representative results of two independent experiments are shown; data are means ± SEM. JPAB01: ompA-deficient ATCC 17978 strain. *P<0.05: between infected and non-infected cells, #P<0.05: between untreated and treated groups. […]"}, "A. baumannii ATCC 17978 [10]": {"system": "A. baumannii ATCC 17978", "assay": "Time kill curves", "assay_type": "cell-based", "settings": "0.25–1 mg/mL", "excerpt": "(§6) Figure S4. Time kill curves of A. baumannii ATCC 17978, P. aeruginosa PaO1, and E. coli\n(§7) (also on this page, place not known: Bacterial concentration ( Log CFU/mL) Bacterial concentration ( Log CFU/mL) Bacterial concentration ( Log CFU/mL))"}, "E. coli ATCC 25922 [11]": {"system": "E. coli ATCC 25922", "assay": "Time kill curves", "assay_type": "cell-based", "settings": "0.25–1 mg/mL", "excerpt": "as §6, §7"}, "P. aeruginosa PaO1 [12]": {"system": "P. aeruginosa PaO1", "assay": "Time kill curves", "assay_type": "cell-based", "settings": "0.25–1 mg/mL", "excerpt": "as §6, §7"}},
  "note": "Where a SMILES comes first, the peptide text is derived from it. [ ]: non-standard residue; d: D form.",
  "data": [
    {"compound": "N=C(N)NCCC[C@@H]1NC(=O)[C@H]2CCCN2C(=O)[C@H](Cc2c[nH]c3ccccc23)NC(=O)[C@H](CCCNC(=N)N)NC(=O)[C@H]2CCCN2C(=O)[C@H](Cc2c[nH]c3ccccc23)NC1=O", "note": "[AOA-2] (cyclo(RW[dP]RW[dP]))", "values": [
      {"measurement": "MIC", "setting": "A. baumannii ATCC 17978 [1]", "result": "> 500", "unit": "µg/mL"},
      {"measurement": "MIC", "setting": "E. coli ATCC 25922 [2]", "result": "> 500", "unit": "µg/mL"},
      {"measurement": "MIC", "setting": "P. aeruginosa PaO1 [3]", "result": "> 500", "unit": "µg/mL"},
      {"measurement": "viability at 48 h, 250 µg/mL", "setting": "[4]", "result": "98.09 ± 0.27", "unit": "%"},
      {"measurement": "viability at 48 h, 500 µg/mL", "setting": "[4]", "result": "98.33 ± 0.4", "unit": "%"},
      {"measurement": "viability at 48 h, 1000 µg/mL", "setting": "[4]", "result": "98.48 ± 0.55", "unit": "%"},
      {"measurement": "reduction in the adherence of A. baumannii to A549 cells", "setting": "A. baumannii ATCC 17978 [5]; 0.25 mg/mL, 10^8 CFU/mL", "result": "more than 60%"},
      {"measurement": "ability to reduce A. baumannii adherence to A549 cells, rank among synthesized peptides (in words)", "setting": "A. baumannii ATCC 17978 [5]; 0.25, 0.5, 1 mg/mL", "result": "greatest ability to reduce the A. baumannii adherence to A549 cells"},
      {"measurement": "binding to OmpA by NMR (in words)", "setting": "E. coli OmpA", "result": "interacting with OmpA"},
      {"measurement": "A549 cell death induced by bacteria (in words)", "setting": "A. baumannii ATCC 17978 [6]", "result": "prevented cell death"},
      {"measurement": "A549 cell death induced by bacteria (in words)", "setting": "E. coli ATCC 25922 [7]", "result": "failure"},
      {"measurement": "A549 cell death induced by bacteria (in words)", "setting": "P. aeruginosa PaO1 [8]", "result": "prevented cell death"},
      {"measurement": "A549 cell death induced by ompA-deficient A. baumannii (in words)", "setting": "[9]", "result": "no effect on cell death"},
      {"measurement": "bacteriostatic activity (in words)", "setting": "A. baumannii ATCC 17978 [10]", "result": "poor bacteriostatic activity"},
      {"measurement": "bacteriostatic activity (in words)", "setting": "E. coli ATCC 25922 [11]", "result": "intermediate behaviour"},
      {"measurement": "bacteriostatic activity (in words)", "setting": "P. aeruginosa PaO1 [12]", "result": "relevant bacteriostatic activity"}
    ]}
  ]
}
